Laboratory results as given in patent publication US8633245B2, “PAI-1 inhibitor” (Institute of Medicinal Molecular Design, Inc., priority 2008, dated 2014).

Target: T1, recombinant human PAI-1 (Homo sapiens, UniProt P05121)
T1 construct: purchased Molecular Innovations, Inc
Assay: Test Example 2: human PAI-1 inhibitory activity (tPA fluorogenic substrate, pH 7.4 HEPES buffer)
Type: biochemical
Conditions: for IC50 / Inhibition Rate of PAI-1 Activity (%): human PAI-1; for IC50: calculated from the inhibition rates; for inhibition at 3 µM: read-out: Inhibition Rate of PAI-1 Activity (%)
Procedure: 0.1 M HEPES, 0.1 M NaCl. 1 mM EDTA. 0.1% Polyethylene glycol 8,000 (Hampton Research Corporation),
2 mM Dimethyldecylphoshine oxide [Apo-10] (Fluka Corporation)

T1 sequence (P05121 24-402): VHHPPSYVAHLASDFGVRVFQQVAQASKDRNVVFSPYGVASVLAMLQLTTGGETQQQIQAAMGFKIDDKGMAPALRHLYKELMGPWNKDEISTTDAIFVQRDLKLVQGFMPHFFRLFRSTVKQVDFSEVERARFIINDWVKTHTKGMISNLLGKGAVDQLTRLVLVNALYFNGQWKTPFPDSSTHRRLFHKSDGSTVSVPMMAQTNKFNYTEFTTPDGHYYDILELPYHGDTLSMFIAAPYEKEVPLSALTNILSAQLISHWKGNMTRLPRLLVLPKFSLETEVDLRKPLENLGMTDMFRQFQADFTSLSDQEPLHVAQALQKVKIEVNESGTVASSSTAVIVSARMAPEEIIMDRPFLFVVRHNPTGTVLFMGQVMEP

Compound CC(C)(Oc1c(Oc2ccc(C(C)(C)C)cc2)cccc1-c1ccc(OC(F)(F)F)cc1)C(=O)O [Compound 251] has an IC50 of 1350 nM.

For CCCCCOc1cc(-c2ccc(OC(F)(F)F)cc2)cc(OCc2ccc(C(C)(C)C)cc2)c1OCC(=O)O [Compound 301], the IC50 was 470 nM.

CC(C)(C)c1ccc(Oc2ccc(-c3ccc(OC(F)(F)F)cc3)cc2OCC(=O)O)cc1 [Compound 302] gave an IC50 of 1700 nM.

Compound CCCCC(Oc1cc(-c2ccc(OC(F)(F)F)cc2)ccc1Oc1ccc(C(C)(C)C)cc1)C(=O)O (stereo not drawn) [Compound 303] has an IC50 of 540 nM.

With CC(C)(C)c1ccc(COc2cc(-c3ccc(OC(F)(F)F)cc3)ccc2OCC(=O)O)cc1 [Compound 304] the IC50 was 1230 nM.

With CCCCC(Oc1ccc(-c2ccc(OC(F)(F)F)cc2)cc1Oc1ccc(C(C)(C)C)cc1)C(=O)O (stereo not drawn) [Compound 305] the IC50 was 940 nM.

Work on CCCCC(Oc1cc(-c2ccc(OC(F)(F)F)cc2)ccc1OCCCCc1ccccc1)C(=O)O (stereo not drawn) [Compound 306] yielded an IC50 of 880 nM.

For CCCCC(Oc1cc(-c2ccc(OC(F)(F)F)cc2)ccc1Oc1ccccc1)C(=O)O (stereo not drawn) [Compound 307], the IC50 was 1530 nM.

CCCCC(Oc1cc(Oc2ccc(OC(F)(F)F)cc2)ccc1OCc1ccc(C(C)(C)C)cc1)C(=O)O (stereo not drawn) [Compound 308] gave an IC50 of 670 nM.

CCCCC(Oc1cc(Oc2ccc(OC(F)(F)F)cc2)ccc1OCCCCc1ccccc1)C(=O)O (stereo not drawn) [Compound 309] gave an IC50 of 660 nM.

CCCCC(Oc1ccc(-c2ccc(OC(F)(F)F)cc2)cc1OCc1ccc(C(C)(C)C)cc1)C(=O)O (stereo not drawn) [Compound 310] showed an IC50 of 710 nM.

For CCCCC(Oc1ccc(-c2ccc(OC(F)(F)F)cc2)cc1OCCCCc1ccccc1)C(=O)O (stereo not drawn) [Compound 311], the IC50 was 580 nM.

CCCCC(Oc1cc(Oc2ccc(OC(F)(F)F)cc2)ccc1Oc1ccc(C(C)(C)C)cc1)C(=O)O (stereo not drawn) [Compound 312] gave an IC50 of 530 nM.

For CCCCC(Oc1cc(-c2ccc(OC(F)(F)F)cc2)ccc1OCc1ccc(C(C)(C)C)cc1)C(=O)O (stereo not drawn) [Compound 313], the IC50 was 980 nM.

Compound CC(C)(C)c1ccc(Oc2ccc(-c3cccc(C(F)(F)F)c3)cc2OCC(=O)O)cc1 [Compound 314] has an IC50 of 1860 nM.

CC(C)(C)c1ccc(Oc2cc(-c3cccc(C(F)(F)F)c3)ccc2OCC(=O)O)cc1 [Compound 315] was tested, and the IC50 was 850 nM and the inhibition at 3 µM was greater than 99%.

In the case of Cc1cccc(-c2ccc(Oc3ccc(C(C)(C)C)cc3)c(OCC(=O)O)c2)c1 [Compound 316], the IC50 is reported as 1780 nM.

In the case of CCCCC(Oc1cc(-c2cccc(C)c2)ccc1Oc1ccc(C(C)(C)C)cc1)C(=O)O (stereo not drawn) [Compound 317], the IC50 is reported as 650 nM.

CCCCC(Oc1cc(-c2cccc(C(F)(F)F)c2)ccc1Oc1ccc(C(C)(C)C)cc1)C(=O)O (stereo not drawn) [Compound 318] showed an IC50 of 580 nM.

Cc1cccc(-c2ccc(OCC(=O)O)c(Oc3ccc(C(C)(C)C)cc3)c2)c1 [Compound 319] gave an IC50 of 2100 nM.

CCCCC(Oc1ccc(-c2cccc(C(F)(F)F)c2)cc1Oc1ccc(C(C)(C)C)cc1)C(=O)O (stereo not drawn) [Compound 320] gave an IC50 of 740 nM.

CCCCC(Oc1ccc(-c2cccc(C)c2)cc1Oc1ccc(C(C)(C)C)cc1)C(=O)O (stereo not drawn) [Compound 321] showed an IC50 of 600 nM.

With CCCCCCC(Oc1cc(-c2ccc(OC(F)(F)F)cc2)ccc1Oc1ccccc1)C(=O)O (stereo not drawn) [Compound 322] the IC50 was 740 nM.

CCCCCCC(Oc1cc(-c2ccc(OC(F)(F)F)cc2)ccc1Oc1ccc(C(C)(C)C)cc1)C(=O)O (stereo not drawn) [Compound 323] was tested, and the IC50 was 490 nM.

Work on CCCCC(Oc1cc(-c2ccc(OC(F)(F)F)cc2)ccc1OCCCCc1ccc(F)cc1)C(=O)O (stereo not drawn) [Compound 324] yielded an IC50 of 830 nM.

Work on CCCCC(Oc1cc(-c2ccc(OC(F)(F)F)cc2)ccc1OCCCCc1ccc(Cl)cc1)C(=O)O (stereo not drawn) [Compound 325] yielded an IC50 of 580 nM.

Work on CCCCCCC(Oc1cc(-c2ccc(OC(F)(F)F)cc2)ccc1Oc1ccc(OC(F)(F)F)cc1)C(=O)O (stereo not drawn) [Compound 326] yielded an IC50 of 330 nM.

With CCCCCCC(Oc1cc(-c2ccc(OC(F)(F)F)cc2)ccc1Oc1ccc(C(F)(F)F)cc1)C(=O)O (stereo not drawn) [Compound 327] the IC50 was 420 nM.

In the case of CC(C)(C)c1ccc(Oc2ccc(-c3ccc(OC(F)(F)F)cc3)cc2OCC(=O)O)cc1 [Compound 328], the IC50 is reported as 1460 nM, the “Inhibition Rate of PAI-1 Activity (%)” value (compound concentration 0.1 μM) is reported as 0% and the “Inhibition Rate of PAI-1 Activity (%)” value (compound concentration 0.3 μM) is reported as 14%. The “Inhibition Rate of PAI-1 Activity (%)” value (compound concentration 1 μM) was 30% and the “Inhibition Rate of PAI-1 Activity (%)” value (compound concentration 3 μM) was greater than 99%.

Work on CC(C)(C)c1ccc(Oc2ccc(-c3cccc(OC(F)(F)F)c3)cc2OCC(=O)O)cc1 [Compound 329] yielded an IC50 of 1720 nM.

CC(C)(C)c1ccc(Oc2cc(-c3ccc(C(F)(F)F)cc3)ccc2OCC(=O)O)cc1 [Compound 330] was tested, and the IC50 was 1030 nM.

Work on CC(C)(C)c1ccc(Oc2cc(-c3cccc(OC(F)(F)F)c3)ccc2OCC(=O)O)cc1 [Compound 331] yielded an IC50 of 790 nM.

For CC(C)(C)c1ccc(Oc2cc(-c3cccc(C(F)(F)F)c3)ccc2CCC(=O)O)cc1 [Compound 332], the IC50 was 1470 nM and the inhibition at 3 µM was greater than 99%.
